Laboratory results: publication PMC8041284, “Tunable Methacrylamides for Covalent Ligand Directed Release Chemistry” (Journal of the American Chemical Society, 2021)
pIC50: −log10 of the molar value. Read-outs that look alike come from different tables or passages of the source.

Assays:
Mino cells = assay: In-gel fluorescence activity-based profiling (in situ proteomic labeling); format: cell-based; settings: Mino cells treated for 2 h, TAMRA-azide click
Experimental: Mino cells were treated for 2 h with either 0.1% DMSO or the indicated concentrations of IA-alkyne, 2a, 2b, and 2c. The cells were lysed with RIPA buffer (Sigma), and protein concentration was determined using the BCA protein assay (Thermo Fisher Scientific). Lysates were then diluted to 2 mg/mL in PBS and clicked to TAMRA-azide (click chemistry tools). Click reaction was performed using a final concentration of 40 μM TAMRA-azide, 3 mM CuSO4, 3 mM tris(3-hydroxypropyltriazolylmethyl)amine (THPTA, Sigma), and 3.7 mM sodium L-ascorbate (Sigma) in a final volume of 60 μL. The samples were incubated at 25 °C for 2 h. A 20 μL amount of 4× LDS sample buffer (NuPAGE, Thermo Fischer Scientific) was added followed by a 10 min incubation at 70 °C. The samples were then loaded on a 4–20% Bis-Tris gel (SurePAGE, GeneScript) and imaged using a Typhoon FLA 9500 scanner.

BTK [1] = biological target: T1, BTK (Homo sapiens, UniProt Q06187); settings: 10 µM, inhibitor
BTK [2] = biological target: T1, BTK; assay: biochemical; settings: read-out: BTK inhibition (%), 0.75 uM BTK, […] probe 3l, 15 min preincubation
EGFR = EGFR (Homo sapiens, UniProt P00533); assay: In vitro kinase activity assay (Nanosyn); format: biochemical; settings: rounded; 2 h preincubation, 5 μM ATP
Experimental: (§1) Kinase reactions are assembled in 384-well plates (Greiner) in a total volume of 20 μL. Test compounds were diluted in DMSO to a final concentration, while the final concentration of DMSO in all assays was kept at 1%. The compounds were incubated with the kinases for 2 h. […] The reaction was initiated by 2-fold dilution into a solution containing 5 μM ATP and 1 μM substrate in the kinase buffer
in 100 mM HEPES, pH 7.5, 0.1% BSA, 0.01% Triton X-100, 1 mM DTT, 10 mM MnCl2.
initiated by 2-fold dilution into a solution containing 5 μM ATP and 1 μM substrate in the kinase buffer.

primary mouse B cells = assay: B-cell response experiment (anti-IgM activation, CD86 by flow cytometry); format: cell-based; settings: representative FACS plot, concentration not given
wild-type BTK = wild-type BTK (Homo sapiens, UniProt Q06187); assay: In vitro kinase activity assay (Nanosyn)
Experimental: as §1

BLK = BLK (Homo sapiens, UniProt P51451); assay: In vitro kinase activity assay (Nanosyn)
Experimental: as §1

BMX = biological target: T2, BMX (Homo sapiens, UniProt P51813); assay: In vitro kinase activity assay (Nanosyn)
T2 sequence (P51813 1-675): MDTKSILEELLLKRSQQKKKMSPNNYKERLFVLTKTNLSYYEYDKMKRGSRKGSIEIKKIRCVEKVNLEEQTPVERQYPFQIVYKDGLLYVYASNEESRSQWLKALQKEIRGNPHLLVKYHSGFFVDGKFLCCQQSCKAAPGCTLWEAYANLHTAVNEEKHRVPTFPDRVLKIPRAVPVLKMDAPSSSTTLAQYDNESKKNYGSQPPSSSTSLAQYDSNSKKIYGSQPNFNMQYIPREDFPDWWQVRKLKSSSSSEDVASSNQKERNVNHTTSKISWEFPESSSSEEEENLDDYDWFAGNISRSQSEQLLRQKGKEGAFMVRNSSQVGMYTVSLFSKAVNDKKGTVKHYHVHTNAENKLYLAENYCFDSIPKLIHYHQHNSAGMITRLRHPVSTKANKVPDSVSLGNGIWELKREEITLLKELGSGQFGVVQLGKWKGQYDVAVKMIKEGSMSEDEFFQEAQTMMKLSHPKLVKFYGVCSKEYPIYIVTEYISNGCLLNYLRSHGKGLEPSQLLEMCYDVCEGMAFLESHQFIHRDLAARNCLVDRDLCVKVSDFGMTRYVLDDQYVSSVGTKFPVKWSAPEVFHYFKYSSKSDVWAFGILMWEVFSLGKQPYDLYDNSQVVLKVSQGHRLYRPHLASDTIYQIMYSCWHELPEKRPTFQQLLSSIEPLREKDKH
Experimental: as §1

ERBB2 = ERBB2 (Homo sapiens, UniProt P04626); assay: In vitro kinase activity assay (Nanosyn)
Experimental: as §1

ITK = biological target: T3, ITK (Homo sapiens, UniProt Q08881); assay: In vitro kinase activity assay (Nanosyn)
T3 sequence (Q08881 1-620): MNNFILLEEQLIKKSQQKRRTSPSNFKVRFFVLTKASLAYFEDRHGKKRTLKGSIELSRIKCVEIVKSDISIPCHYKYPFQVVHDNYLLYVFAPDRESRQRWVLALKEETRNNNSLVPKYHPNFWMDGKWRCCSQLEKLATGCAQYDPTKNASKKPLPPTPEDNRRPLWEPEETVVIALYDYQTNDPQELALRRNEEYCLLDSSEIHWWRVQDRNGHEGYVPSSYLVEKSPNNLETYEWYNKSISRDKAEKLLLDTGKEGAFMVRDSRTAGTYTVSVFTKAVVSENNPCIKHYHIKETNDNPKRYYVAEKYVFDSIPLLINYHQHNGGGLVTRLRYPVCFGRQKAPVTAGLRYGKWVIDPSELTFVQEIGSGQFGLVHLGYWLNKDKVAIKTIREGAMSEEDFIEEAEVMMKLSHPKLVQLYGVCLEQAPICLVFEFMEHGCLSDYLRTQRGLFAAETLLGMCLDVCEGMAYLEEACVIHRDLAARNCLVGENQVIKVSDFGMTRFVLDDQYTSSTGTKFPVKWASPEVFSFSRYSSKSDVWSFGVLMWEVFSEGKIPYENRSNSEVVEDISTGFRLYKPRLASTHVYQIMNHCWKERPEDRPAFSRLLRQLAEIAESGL
Experimental: as §1

BTK [3] = biological target: T1, BTK; assay: biochemical; design: HTS: BTK preincubated 15 min with compound, then chemiluminescent covalent probe 3l; loss of luminescence at 30 min; settings: 0.75 uM BTK, 1.5 uM probe 3l, 15 min preincubation
[4] = GSH reactivity assay for model compounds (LC/MS); format: physicochemical; settings: 100 μM 1i and 5 mM GSH in PBS buffer, pH 8, 37 °C (n = 3)
Experimental: LC/MS runs were performed on a Waters ACUITY UPLC class H instrument, in positive ion mode using electrospray ionization. […] The column was held at 40 °C, and the autosampler at 10 °C. Mobile phase A was 0.1% formic acid in the water, and mobile phase B was 0.1% formic acid in acetonitrile. The run flow was 0.3 mL/min. […] The column was held at 40 °C, and the autosampler at 10 °C. Mobile solution A was 0.1% formic acid in the water, and mobile phase B was 0.1% formic acid in acetonitrile.
All solvents were bubbled with argon. Reaction mixtures were kept at 37 °C with shaking. At various times 5 μL from the reaction mixture was injected into the LC/MS.

[5] = 0.75 uM BTK, […] probe 3l, 15 min preincubation, BTK inhibition (%)
[6] = 0.75 uM BTK, […] probe 3l, 15 min preincubation

wild-type BTK, sequence (Q06187 whole entry): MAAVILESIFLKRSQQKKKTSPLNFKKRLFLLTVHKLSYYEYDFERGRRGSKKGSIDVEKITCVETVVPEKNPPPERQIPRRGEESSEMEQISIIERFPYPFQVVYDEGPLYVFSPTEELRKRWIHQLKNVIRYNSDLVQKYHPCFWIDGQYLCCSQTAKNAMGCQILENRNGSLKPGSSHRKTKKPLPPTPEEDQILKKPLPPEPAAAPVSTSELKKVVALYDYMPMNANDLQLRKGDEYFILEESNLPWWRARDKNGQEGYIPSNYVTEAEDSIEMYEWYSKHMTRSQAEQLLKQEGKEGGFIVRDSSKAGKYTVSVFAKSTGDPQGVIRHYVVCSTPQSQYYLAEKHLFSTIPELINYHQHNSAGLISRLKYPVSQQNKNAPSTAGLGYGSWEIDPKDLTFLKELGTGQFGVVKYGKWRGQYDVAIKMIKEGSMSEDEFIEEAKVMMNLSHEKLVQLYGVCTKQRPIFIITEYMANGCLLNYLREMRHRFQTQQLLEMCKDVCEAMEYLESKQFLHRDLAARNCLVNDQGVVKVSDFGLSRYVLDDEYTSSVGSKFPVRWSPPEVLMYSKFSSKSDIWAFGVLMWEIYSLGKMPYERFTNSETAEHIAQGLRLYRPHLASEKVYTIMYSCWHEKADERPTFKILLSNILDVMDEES
T1 sequence (Q06187 402-655 limits assumed): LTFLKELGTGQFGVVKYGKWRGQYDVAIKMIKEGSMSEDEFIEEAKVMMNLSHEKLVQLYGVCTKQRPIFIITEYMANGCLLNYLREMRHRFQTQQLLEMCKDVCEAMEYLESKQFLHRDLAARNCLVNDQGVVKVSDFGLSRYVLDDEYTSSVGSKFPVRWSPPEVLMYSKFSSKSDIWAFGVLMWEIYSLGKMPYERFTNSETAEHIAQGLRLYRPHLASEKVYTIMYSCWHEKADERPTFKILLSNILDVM
BLK, sequence (P51451 whole entry, species assumed): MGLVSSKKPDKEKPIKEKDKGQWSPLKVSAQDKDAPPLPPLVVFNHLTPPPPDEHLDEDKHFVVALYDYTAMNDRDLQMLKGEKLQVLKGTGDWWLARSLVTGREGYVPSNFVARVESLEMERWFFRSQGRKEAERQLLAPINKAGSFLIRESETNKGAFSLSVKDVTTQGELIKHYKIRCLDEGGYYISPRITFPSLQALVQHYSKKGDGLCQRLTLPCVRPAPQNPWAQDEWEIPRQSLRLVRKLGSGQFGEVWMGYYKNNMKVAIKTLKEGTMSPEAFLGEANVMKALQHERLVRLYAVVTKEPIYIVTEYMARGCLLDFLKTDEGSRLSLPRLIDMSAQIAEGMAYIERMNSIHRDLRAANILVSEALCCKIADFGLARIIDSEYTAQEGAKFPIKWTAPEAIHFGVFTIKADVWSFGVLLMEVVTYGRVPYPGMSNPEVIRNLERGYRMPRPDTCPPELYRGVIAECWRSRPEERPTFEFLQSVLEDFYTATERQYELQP
EGFR, sequence (P00533 25-1210): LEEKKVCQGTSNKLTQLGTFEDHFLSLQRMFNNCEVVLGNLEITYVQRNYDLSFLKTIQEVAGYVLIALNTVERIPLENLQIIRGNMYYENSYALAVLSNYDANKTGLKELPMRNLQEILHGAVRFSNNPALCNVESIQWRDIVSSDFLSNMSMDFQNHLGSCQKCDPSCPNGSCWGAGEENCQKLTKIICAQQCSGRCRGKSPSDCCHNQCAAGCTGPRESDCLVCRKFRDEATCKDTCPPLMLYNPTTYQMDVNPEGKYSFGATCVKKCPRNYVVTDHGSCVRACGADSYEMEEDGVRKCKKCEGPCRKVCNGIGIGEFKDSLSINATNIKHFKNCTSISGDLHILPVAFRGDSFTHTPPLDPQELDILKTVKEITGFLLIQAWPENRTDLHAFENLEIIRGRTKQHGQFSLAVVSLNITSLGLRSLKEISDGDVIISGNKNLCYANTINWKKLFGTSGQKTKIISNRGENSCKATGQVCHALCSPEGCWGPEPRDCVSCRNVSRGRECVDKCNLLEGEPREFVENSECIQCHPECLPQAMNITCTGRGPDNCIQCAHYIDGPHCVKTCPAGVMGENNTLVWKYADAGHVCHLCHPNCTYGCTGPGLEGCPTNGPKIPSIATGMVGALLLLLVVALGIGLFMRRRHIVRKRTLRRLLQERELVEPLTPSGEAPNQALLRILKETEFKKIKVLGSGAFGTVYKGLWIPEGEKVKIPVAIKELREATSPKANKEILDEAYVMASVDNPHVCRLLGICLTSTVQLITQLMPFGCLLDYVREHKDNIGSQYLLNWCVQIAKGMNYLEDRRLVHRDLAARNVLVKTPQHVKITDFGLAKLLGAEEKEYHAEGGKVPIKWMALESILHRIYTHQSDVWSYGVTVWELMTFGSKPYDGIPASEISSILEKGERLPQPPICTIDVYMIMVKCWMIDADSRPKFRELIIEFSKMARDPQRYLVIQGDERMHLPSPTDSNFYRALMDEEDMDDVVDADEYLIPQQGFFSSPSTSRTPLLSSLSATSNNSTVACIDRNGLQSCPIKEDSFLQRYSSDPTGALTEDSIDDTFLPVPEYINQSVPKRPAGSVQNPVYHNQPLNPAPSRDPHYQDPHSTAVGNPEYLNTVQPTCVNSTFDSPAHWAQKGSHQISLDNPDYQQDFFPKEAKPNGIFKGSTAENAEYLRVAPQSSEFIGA
ERBB2, sequence (P04626 23-1255, species assumed): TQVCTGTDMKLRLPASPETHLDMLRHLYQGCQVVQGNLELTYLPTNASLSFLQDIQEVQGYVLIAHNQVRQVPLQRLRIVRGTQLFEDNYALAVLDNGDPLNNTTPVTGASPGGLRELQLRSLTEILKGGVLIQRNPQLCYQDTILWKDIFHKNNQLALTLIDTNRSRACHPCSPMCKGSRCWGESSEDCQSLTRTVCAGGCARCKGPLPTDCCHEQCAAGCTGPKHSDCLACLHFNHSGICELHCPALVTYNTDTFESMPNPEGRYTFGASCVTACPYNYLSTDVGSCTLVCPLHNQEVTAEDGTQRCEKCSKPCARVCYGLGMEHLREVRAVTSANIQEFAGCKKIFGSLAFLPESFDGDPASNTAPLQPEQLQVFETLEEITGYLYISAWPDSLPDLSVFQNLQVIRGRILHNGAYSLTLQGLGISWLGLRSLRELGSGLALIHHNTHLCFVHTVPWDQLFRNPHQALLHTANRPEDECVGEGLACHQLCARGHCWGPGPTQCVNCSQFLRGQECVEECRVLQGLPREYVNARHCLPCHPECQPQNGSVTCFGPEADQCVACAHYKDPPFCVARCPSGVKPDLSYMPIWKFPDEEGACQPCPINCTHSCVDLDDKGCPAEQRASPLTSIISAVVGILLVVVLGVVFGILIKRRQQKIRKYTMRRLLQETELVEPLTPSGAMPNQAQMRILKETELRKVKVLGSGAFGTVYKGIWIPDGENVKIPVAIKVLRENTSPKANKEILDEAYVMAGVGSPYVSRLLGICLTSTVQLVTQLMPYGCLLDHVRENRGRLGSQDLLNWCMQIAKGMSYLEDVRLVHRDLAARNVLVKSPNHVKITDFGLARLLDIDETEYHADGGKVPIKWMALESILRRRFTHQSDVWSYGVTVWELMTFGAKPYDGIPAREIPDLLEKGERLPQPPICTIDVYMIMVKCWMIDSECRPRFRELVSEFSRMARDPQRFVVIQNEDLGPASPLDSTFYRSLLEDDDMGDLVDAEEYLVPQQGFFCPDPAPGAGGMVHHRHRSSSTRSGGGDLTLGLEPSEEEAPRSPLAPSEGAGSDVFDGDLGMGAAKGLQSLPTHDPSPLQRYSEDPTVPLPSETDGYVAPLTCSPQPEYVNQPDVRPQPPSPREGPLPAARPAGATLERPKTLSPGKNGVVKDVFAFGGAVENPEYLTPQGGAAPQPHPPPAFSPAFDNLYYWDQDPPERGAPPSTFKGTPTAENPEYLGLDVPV

SMILES | BTK inhibition (%) (BTK [1]; [5]) | inhibition at 10 µM (BTK [2]) | also measured
C#CCCNC(=O)C(=C)CN(C)c1ccccc1 [2c] |  |  | in situ proteomic labeling (in-gel fluorescence) (Mino cells): completely inactive
O=c1c(O)c(-c2ccc(O)c(O)c2)oc2cc(O)cc(O)c12 [PCM-0065486] | 39.3% | 48.2% | 
C=C(COC(C)=O)C(=O)N1CCC[C@@H](n2nc(-c3ccc(Oc4ccccc4)cc3)c3c(N)ncnc32)C1 [3h] |  |  | pIC50 (EGFR): 7.55; B220+ cells-activated (CD86 positive) (primary mouse B cells): 82.9%; pIC50 (wild-type BTK; BTK IC50, in vitro kinase activity assay): > 10.00; pIC50 (wild-type BTK; BTK IC50, rounded, 2 h preincubation, 5 μM ATP): 10.00; pIC50 (BLK): 9.22; pIC50 (BMX): 9.52; pIC50 (ERBB2): 6.71; pIC50 (ITK): 6.53
COc1cc2c3cc1Oc1c(OC)c(OC)cc4c1[C@@H](Cc1ccc(O)c(c1)Oc1ccc(cc1)C[C@@H]3N(C)CC2)N(C)CC4 [PCM-0214866] | 17.8% | 21.4% | 
Cc1cc(Nc2cc(N3CCN(C)CC3)nc(/C=C/c3ccccc3)n2)n[nH]1 [PCM-0095056] | 91% | 85.5% | 
C[C@]12CC[C@H](O)C[C@@]1(O)CC[C@@H]1[C@@H]2CC[C@]2(C)[C@@H](C3=CC(=O)OC3)CC[C@]12O [PCM-0216443] |  |  | inhibition at 10 µM (BTK [3]): 6.2%
C=CC(=O)N1CCC[C@@H](n2nc(-c3ccc(Oc4ccccc4)cc3)c3c(N)ncnc32)C1 [ibrutinib, reference compound] |  |  | B220+ cells-activated (CD86 positive) (primary mouse B cells): 81.2%
CN(c1ncccc1CNc1nc(Nc2ccc3c(c2)CC(=O)N3)ncc1C(F)(F)F)S(C)(=O)=O [PCM-0095340] | 78.6% | 84.8% | 
CCOc1ccccc1OCCN[C@H](C)Cc1ccc(OC)c(S(N)(=O)=O)c1 [PCM-0214853] | 13.2% | 7% | 
C=C(COc1ccc2ccc(=O)oc2c1)C(=O)NCc1ccccc1 [1i] |  |  | rate of depletion of 1i, k [4]: 0.24 h⁻¹; rate of formation of coumarin, k [4]: 0.24 h⁻¹
CN1CC[C@H](c2c(O)cc(O)c3c(=O)cc(-c4ccccc4Cl)oc23)[C@H](O)C1 [PCM-0095354] | 17.2% | 29.7% | 
C=C(C)C(=O)N1CCC[C@@H](n2nc(-c3ccc(Oc4ccccc4)cc3)c3c(N)ncnc32)C1 [3a] |  |  | pIC50 (wild-type BTK; BTK IC50, 0.6 nM BTK, 5 μM ATP, Figure 4C): 7.91
CN(C)[C@@H]1C(=O)C(C(N)=O)=C(O)[C@@]2(O)C(=O)C3=C(O)c4c(O)cccc4[C@@](C)(O)[C@H]3[C@H](O)[C@@H]12 [PCM-0214652] | 33.5% | 35.8% | 
CNCCc1ccccn1 [PCM-0086123] | 5.4% | 5.5% | 
CC[C@]12C=CCN3CC[C@]4(C(=C(C(=O)OC)C1)Nc1ccccc14)[C@@H]32 [PCM-0215925] | 13.9% | 10.8% | 
COc1cc(Nc2ncc(F)c(Nc3ccc4c(n3)NC(=O)C(C)(C)O4)n2)cc(OC)c1OC [PCM-0095093] | 31.7% | 32.4% | 
C=C(COC(=O)OC)C(=O)N1CCC[C@@H](n2nc(-c3ccc(Oc4ccccc4)cc3)c3c(N)ncnc32)C1 [3i] |  |  | pIC50 (EGFR): 7.51; B220+ cells-activated (CD86 positive) (primary mouse B cells): 85.0%; pIC50 (BLK): 9.10; pIC50 (BMX): 9.40; pIC50 (ERBB2): 6.76; pIC50 (ITK): 6.63
Cc1cc(C2CCCCC2)n(O)c(=O)c1 [PCM-0086120] | 28% | 39.7% | 
C#CCCNC(=O)C(=C)COc1ccc2ccc(=O)oc2c1 [2a] |  |  | in situ proteomic labeling (in-gel fluorescence) (Mino cells): labeled more proteins compared to 2b
CC(C)[C@]12O[C@H]1[C@@H]1O[C@@]13[C@@]1(C)CCC4=C(COC4=O)[C@@H]1C[C@@H]1O[C@@]13C2=O [PCM-0216318] |  |  | inhibition at 10 µM (BTK [3]): -26.3%

SMILES | BTK inhibition (%) (BTK [1]; [5]) | inhibition at 10 µM (BTK [2]) | also measured
COc1cc2nccc(Oc3ccc(NC(=O)C4(C(=O)Nc5ccc(F)cc5)CC4)cc3)c2cc1OC [PCM-0094920] | 123.4% | 86.9% | 
O=C(NC(=O)c1c(F)cccc1F)Nc1ccc(OC(F)(F)C(F)OC(F)(F)F)c(Cl)c1 (centres unmarked) [PCM-0216580] |  |  | BTK inhibition (%) (BTK [1]; [6]): 22.4%
NC(=O)c1ncn([C@@H]2O[C@H](CO)[C@@H](O)[C@H]2O)n1 [PCM-0065438] |  |  | BTK inhibition (%) (BTK [1]; [6]): -11.7%
Nc1ccc(S(=O)(=O)Nc2ncccn2)cc1 [PCM-0085802] | -14% |  | 
O=C(Nc1ccc(Oc2ccc(Cl)cc2)c(Cl)c1)c1cc(I)cc(I)c1O [PCM-0216018] |  |  | BTK inhibition (%) (BTK [1]; [6]): 37.1%
Cc1ccc(-n2[nH]c(C)c(N=Nc3cccc(-c4cccc(C(=O)O)c4)c3O)c2=O)cc1C [PCM-0214811] | 77% | 80.2% | 
Cc1ccccc1C(=O)Nc1ccc(C(=O)N2CCCC(N(C)C)c3ccccc32)cc1 (centres unmarked) [PCM-0095419] | -13.6% |  | 
C[N+]1(C)[C@@H]2CC(OC(=O)C(O)(c3cccs3)c3cccs3)C[C@H]1[C@@H]1O[C@@H]12 (some centres unmarked) [PCM-0095323] |  |  | BTK inhibition (%) (BTK [1]; [6]): -5.4%
C/C=C(/C)C(=O)O[C@H]1[C@@H](OC(C)=O)c2c(ccc3ccc(=O)oc23)OC1(C)C [PCM-0216298] | 10% |  | 
O=C(Nc1ccc2c(O)cc(S(=O)(=O)O)cc2c1)Nc1ccc2c(O)cc(S(=O)(=O)O)cc2c1 [PCM-0215497] | 21.6% |  | 
CN1[C@@H]2CC(OC(=O)[C@H](CO)c3ccccc3)C[C@H]1[C@@H]1O[C@@H]12 (some centres unmarked) [PCM-0086586] |  |  | BTK inhibition (%) (BTK [1]; [6]): -3.1%
O=c1ccc2c(O)c3ccoc3cc2o1 [PCM-0216332] |  |  | BTK inhibition (%) (BTK [1]): -11.6%
CC(=O)Oc1ccccc1C(=O)O [PCM-0064532] | 7.6% |  | 
O=C(O[C@H]1C[N+]2(CCCOc3ccccc3)CCC1CC2)C(O)(c1cccs1)c1cccs1 [PCM-0214751] |  |  | BTK inhibition (%) (BTK [1]; [6]): -24.1%
O=C(O[C@H]1CN2CCC1CC2)N1CCc2ccccc2[C@@H]1c1ccccc1 [PCM-0095538] |  |  | BTK inhibition (%) (BTK [1]; [6]): -27.2%
Nc1nc2[nH]cc(CCc3ccc(C(=O)N[C@@H](CCC(=O)O)C(=O)O)cc3)c2c(=O)[nH]1 [PCM-0090283] | 2.6% |  | 
CCCCCc1cc(O)cc(O)c1 [PCM-0215917] |  |  | BTK inhibition (%) (BTK [1]): -13.9%
C/C(=C\C(=O)OCCCCCCCCC(=O)O)C[C@@H]1OC[C@H](C[C@@H]2O[C@H]2[C@@H](C)[C@H](C)O)[C@@H](O)[C@H]1O [PCM-0215997] | 13.9% |  | 
CCC(=O)NS(=O)(=O)c1ccc(-c2c(-c3ccccc3)noc2C)cc1 [PCM-0216557] | 2.3% |  | 
